# What was measured:
# Format in all cases: in vivo, male Sprague Dawley rats
# [1] = system: oxaliplatin-induced mechanical allodynia; test: 7-day treatment of established OIPN, paw withdrawal threshold; conditions: pregabalin 30 mg/kg PO on Days 7 and 14, P < .01
# Experimental: (§1) Male Sprague Dawley rats (150–210 g) were housed in groups of 4 in intra-ventilated Perspex home cages. Humidity, temperature (21 ± 1 °C), and lighting (light-dark cycle of 12:12 hours) were controlled and maintained in the home cages, with food and water available ad libitum. Rats acclimatised to the home cages for at least 1 week. All experiments were carried out according to the Animals (Scientific Procedures) Act, 1986 (U.K. Government Home Office). The study was performed under the Home Office project licence number PP0847012. OIPN was established with a single dose of OXA (10 mg/kg, IP).
# Body weight was monitored throughout the study, and terminal plasma and whole brain samples were taken for bioanalysis.
# (§2) Tactile allodynia (primary outcome measure) was assessed using paw withdrawal threshold (PWT), a measure of pain sensitivity. PWT was evaluated using calibrated von-Frey monofilaments (Touch-Test Sensory Evaluator; Scientific Marketing Associates) applied to the plantar surface of the left hind paw. PWT was determined by increasing and decreasing stimulus intensity and estimated using Dixon’s up-down method.[38],[39]
# (§3) To acquire baseline readings, pain behaviour was assessed on 3 consecutive days (Days −3, −2, −1). […] NPB expressed as a percentage change from HBL was calculated as follows (HBL-NPB)/HBL*100. […]
# [2] = Prevention of OIPN, body weight; conditions: pregabalin 30 mg/kg PO QD
# Excerpt: (§4) Pain measurements were made on Days 5/6 (when neuropathy has normally developed) and at the end of the study. […] Terminal plasma samples were taken for bioanalysis and proteomics (Somalogic). Brain regions involved in pain processing, that is, prefrontal cortex (PFC), periaqueductal grey (PAG), whole spinal cords (SC), and L4-L6 dorsal root ganglia, were collected for lipidomic and genomic (Genewiz, China) analyses.
# [3] = system: oxaliplatin-induced mechanical allodynia; test: Prevention of OIPN, paw withdrawal threshold; conditions: pregabalin 30 mg/kg PO QD
# Experimental: as §1, §4, §2
# To acquire baseline readings, pain behaviour was assessed on 3 consecutive days (Days −3, −2, −1). The mean of Day −2 and Day −1 was considered the healthy baseline (HBL) prior to OIPN induction. On Days 5 and 6 after OXA injection, thresholds were reassessed. The mean of Days 5 and 6 was considered the neuropathic baseline (NPB). Animals were then ranked and randomised (based on a Latin square design) to treatment groups according to the percentage change of the mean thresholds observed in the NPB compared to the HBL. NPB expressed as a percentage change from HBL was calculated as follows (HBL-NPB)/HBL*100. All behavioural assessment was done by an experimenter blinded to the identity of the treatment. Separate people were responsible for dosing and assessment/data analysis.
# [4] = system: oxaliplatin-induced thermal hyperalgesia; test: Prevention of OIPN, cold plate latency; conditions: pregabalin 30 mg/kg PO QD, P < .001
# Experimental: as §1
# Pain measurements were made on Days 5/6 (when neuropathy has normally developed) and at the end of the study. […] Terminal plasma samples were taken for bioanalysis and proteomics (Somalogic). […]
# Thermal hyperalgesia was assessed using a cold plate (Bioseb, France) set at a fixed temperature of 15 °C. Latency to the first escape behaviour from the plate was measured indicating discomfort to the thermal stimulation. […]
# as §3
compound,measurement,setting,value
"CC(C)C[C@H](CN)CC(=O)O [pregabalin, Pregabalin, reference compound]",PWT scores versus vehicle,[1],significantly higher PWT scores than vehicle
same,body weight in first 4 days post-administration of OXA,[2],weight loss
same,PWT on Day 14 compared to HBL,[3],neither the ART26.12 nor the pregabalin groups showed significant allodynia
same,PWT on Day 5/6 compared to HBL,[3]; P < .05,significantly lower PWTs
same,cold plate latencies on Day 14 versus vehicle,[4],significantly higher cold plate latencies than the vehicle group
